Legend:
Format in all cases: in vivo
[1] = tested on: blackgrass (Aloepecurus myosuroides); assay: Postemergence herbicidal activity, blackgrass; details: rate of application 0.3 Kg/Ha, rated after 12-17 days
[2] = tested on: velvetleaf (Abutilon theophrasti); assay: Preemergence herbicidal activity, velvetleaf; details: Rate of Application 0.3 Kg/Ha, examined after 12-17 days
[3] = tested on: Johnsongrass (Sorghum halepense); assay: Postemergence herbicidal activity, johnsongrass; details: rate of application 0.3 Kg/Ha, rated after 12-17 days
[4] = tested on: green foxtail (Setaria viridis); assay: Preemergence herbicidal activity, green foxtail; details: Rate of Application 0.3 Kg/Ha, examined after 12-17 days
[5] = tested on: morningglory (Ipomea lacunosa or Ipomea hederacea); assay: Postemergence herbicidal activity, morningglory; details: rate of application 0.3 Kg/Ha, rated after 12-17 days
[6] = tested on: green foxtail (Setaria viridis); assay: Postemergence herbicidal activity, green foxtail; details: rate of application 0.3 Kg/Ha, rated after 12-17 days
[7] = tested on: velvetleaf (Abutilon theophrasti); assay: Postemergence herbicidal activity, velvetleaf; details: rate of application 0.3 Kg/Ha, rated after 12-17 days
[8] = tested on: soybean (Glycine max var. Winchester); assay: Postemergence herbicidal activity, soybean; details: rate of application 0.3 Kg/Ha, rated after 12-17 days
[9] = tested on: soybean (Glycine max var. Winchester); assay: Preemergence herbicidal activity, soybean; details: Rate of Application 0.3 Kg/Ha, examined after 12-17 days
[10] = tested on: field corn (Zea mays var. Pioneer 3732); assay: Postemergence herbicidal activity, corn; details: rate of application 0.3 Kg/Ha, rated after 12-17 days
[11] = tested on: common chickweed (Stellaria media); assay: Preemergence herbicidal activity, chickweed; details: Rate of Application 0.3 Kg/Ha, examined after 12-17 days
[12] = tested on: field corn (Zea mays var. Pioneer 3732); assay: Preemergence herbicidal activity, corn; details: Rate of Application 0.3 Kg/Ha, examined after 12-17 days
[13] = tested on: wheat (Triticum aestivum var. Lew); assay: Preemergence herbicidal activity, wheat; details: Rate of Application 0.3 Kg/Ha, examined after 12-17 days
[14] = tested on: blackgrass (Aloepecurus myosuroides); assay: Preemergence herbicidal activity, blackgrass; details: Rate of Application 0.3 Kg/Ha, examined after 12-17 days
[15] = tested on: wheat (Triticum aestivum var. Lew); assay: Postemergence herbicidal activity, wheat; details: rate of application 0.3 Kg/Ha, rated after 12-17 days
[16] = tested on: Johnsongrass (Sorghum halepense); assay: Preemergence herbicidal activity, johnsongrass; details: Rate of Application 0.3 Kg/Ha, examined after 12-17 days
[17] = tested on: common chickweed (Stellaria media); assay: Postemergence herbicidal activity, chickweed; details: rate of application 0.3 Kg/Ha, rated after 12-17 days
[18] = tested on: morningglory (Ipomea lacunosa or Ipomea hederacea); assay: Preemergence herbicidal activity, morningglory; details: Rate of Application 0.3 Kg/Ha, examined after 12-17 days
[19] = tested on: common cocklebur (Xanthium strumarium L.); assay: Postemergence herbicidal activity, cocklebur; details: rate of application 0.3 Kg/Ha, rated after 12-17 days
[20] = tested on: common cocklebur (Xanthium strumarium L.); assay: Preemergence herbicidal activity, cocklebur; details: Rate of Application 0.3 Kg/Ha, examined after 12-17 days

Compound | Postemergence herbicidal activity (% control) ALOMY [1] | PREEMERGENCE HERBICIDAL ACTIVITY (% CONTROL) ABUTH [2] | Postemergence herbicidal activity (% control) SORHA [3] | PREEMERGENCE HERBICIDAL ACTIVITY (% CONTROL) SETVI [4] | Postemergence herbicidal activity (% control) IPOSS [5] | Postemergence herbicidal activity (% control) SETVI [6] | Postemergence herbicidal activity (% control) ABUTH [7] | Postemergence herbicidal activity (% control) SOY [8] | PREEMERGENCE HERBICIDAL ACTIVITY (% CONTROL) SOY [9] | Postemergence herbicidal activity (% control) CRN [10] | PREEMERGENCE HERBICIDAL ACTIVITY (% CONTROL) STEME [11] | PREEMERGENCE HERBICIDAL ACTIVITY (% CONTROL) CRN [12] | PREEMERGENCE HERBICIDAL ACTIVITY (% CONTROL) WHT [13] | PREEMERGENCE HERBICIDAL ACTIVITY (% CONTROL) ALOMY [14] | Postemergence herbicidal activity (% control) WHT [15] | PREEMERGENCE HERBICIDAL ACTIVITY (% CONTROL) SORHA [16] | Postemergence herbicidal activity (% control) STEME [17] | PREEMERGENCE HERBICIDAL ACTIVITY (% CONTROL) IPOSS [18] | Postemergence herbicidal activity (% control) XANPE [19] | PREEMERGENCE HERBICIDAL ACTIVITY (% CONTROL) XANPE [20]
COCOC(C)(C)c1cc2c(Cl)cc(F)c(-n3c(=O)cc(C(F)(F)F)n(C)c3=O)c2o1 [Compound 252] | 100% | 100% | 100% | 100% | 100% | 100% | 100% | 95% | 100% | 100% | 100% | 100% | 100% | 100% | 90% | 100% | 100% | 100% |  | 
CON=Cc1cc2c(Cl)ccc(-n3c(=O)cc(C(F)(F)F)n(C)c3=O)c2o1 [Compound 259] | 55% | 100% | 70% | 100% | 90% | 80% | 100% | 80% | 70% | 75% | 100% | 80% | 40% |  | 35% | 95% | 30% | 70% | 70% | 55%
CNC(=O)c1cc2c(Cl)ccc(-n3c(=O)cc(C(F)(F)F)n(C)c3=O)c2o1 [Compound 270] | 50% | 100% | 50% | 100% | 60% | 50% | 100% | 70% | 70% | 50% |  | 90% | 70% | 65% | 40% | 100% | 40% | 100% |  | 60%
CCOC(=O)c1cc2c(N3C(=O)C4=C(CCCC4)C3=O)ccc(Cl)c2[nH]1 [Compound 595, 3-(7-CHLORO-2-ETHOXYCARBONYLINDOL4-YL)-4,5,6,7-TETRAHYDRO-1H-ISOINDOLE-1,3(2H)-DIONE] | 10% | 60% | 20% | 0% | 40% | 20% | 30% | 50% | 10% | 60% | 10% | 0% | 0% |  | 10% | 40% | 0% | 50% | 20% | 20%
